Assays:
[1] = target: T1, left ventricular (LV) myofibrils (Sus scrofa, UniProt P79293); assay: Steady-state ATPase (ATP turnover rate), LV myofibrils; assay type: biochemical, Yucatan mini-pig
T1 construct: from tissue; host or cells: left ventricle of Yucatan mini-pig heart
Description: The ability of Compound I to increase myocardial ATP turnover rates selectively was evaluated using both left atrial (LA) and left ventricular (LV) myofibrils prepared from Yucatan mini-pig hearts, as well as subfragment-1 (51) myosins from cardiac (recombinant human), skeletal (rabbit psoas) and smooth (chicken gizzard) muscles. Pig hearts were harvested, and the left atria/ventricles were freshly excised, dissected, frozen in liquid nitrogen and stored at −80° C. Myofibrils and S1 myosins were prepared as described in Kawas et al., J Biol Chem. (2017) 292(40:16571-7. Both atrial (n=4 hearts, 2 replicates each) and ventricular (n=3 hearts, 2 replicates each) myofibrils were assayed at a constant concentration of 1.0 mg/mL (at Ca^2+ sensitivity [pCa] 6.0). Rabbit skeletal (0.2 μM, n=8), chicken gizzard (0.5 n=10) and recombinant human cardiac (0.5 n=10) S1 myosin were assayed with a constant concentration of actin (14 μM).
Steady-state ATPase measurements at varying concentrations of Compound I (0-50 μM, in 2% DMSO) were conducted using a coupled enzyme system utilizing pyruvate kinase and lactate dehydrogenase. This enzyme system couples the formation of ADP to the oxidation of NADH leading to an absorbance change at 340 nm. The buffering system used in all experiments was 12 mM PIPES, 2 mM MgCl2 and 1 mM dithiothreitol (DTT) at pH 6.8 (PM12 buffer). All measurements were carried out at 25° C. using a plate reader (SpectraMax; Molecular Devices, LLC, CA, USA) to monitor the change in absorbance as a function of time; data were normalized to a per-second scale as described in Green et al., Science (2016) 351(6273):617-21. Data are presented as means (standard deviation [SD]) in text or as mean±standard error of the mean (SEM) in figures; half maximal effective concentration (EC50) values (and 95% confidence intervals [CIs]) were calculated using a four-parameter-fit model (GraphPad Prism, GraphPad Software Inc., CA, USA).

[2] = target: T2, recombinant human cardiac S1 myosin (Homo sapiens, UniProt P12883); assay: Actin-activated ATPase, cardiac S1 myosin; assay type: biochemical; details: at 3 μM
T2 construct: subfragment-1 (51) myosins from cardiac (recombinant human), skeletal (rabbit psoas) and smooth (chicken gizzard) muscles; made in house
Description: The ability of Compound I to increase myocardial ATP turnover rates selectively was evaluated using both left atrial (LA) and left ventricular (LV) myofibrils prepared from Yucatan mini-pig hearts, as well as subfragment-1 (51) myosins from cardiac (recombinant human), skeletal (rabbit psoas) and smooth (chicken gizzard) muscles. Pig hearts were harvested, and the left atria/ventricles were freshly excised, dissected, frozen in liquid nitrogen and stored at −80° C. […]
Steady-state ATPase measurements at varying concentrations of Compound I (0-50 μM, in 2% DMSO) were conducted using a coupled enzyme system utilizing pyruvate kinase and lactate dehydrogenase. This enzyme system couples the formation of ADP to the oxidation of NADH leading to an absorbance change at 340 nm. […] All measurements were carried out at 25° C. using a plate reader (SpectraMax; Molecular Devices, LLC, CA, USA) to monitor the change in absorbance as a function of time; data were normalized to a per-second scale as described in Green et al., Science (2016) 351(6273):617-21. […]

[3] = tested on: beagle dogs under isoflurane anesthesia, right-atrial burst pacing; assay: AF inducibility and LA size/function with phenylephrine on board (Example 3)
[4] = target: left atrial (LA) myofibrils (Sus scrofa, UniProt K7GMH0); assay: Steady-state ATPase (ATP turnover rate), LA myofibrils; assay type: biochemical, Yucatan mini-pig
Sequence of left atrial (LA) myofibrils (F1SSF9 2-175): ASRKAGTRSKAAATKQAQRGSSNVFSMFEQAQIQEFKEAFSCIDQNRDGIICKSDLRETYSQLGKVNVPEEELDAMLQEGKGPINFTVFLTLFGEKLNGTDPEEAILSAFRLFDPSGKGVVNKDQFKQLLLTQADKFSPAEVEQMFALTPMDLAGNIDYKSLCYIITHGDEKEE
Sequence of left atrial (LA) myofibrils (K7GMH0 entry or part of it): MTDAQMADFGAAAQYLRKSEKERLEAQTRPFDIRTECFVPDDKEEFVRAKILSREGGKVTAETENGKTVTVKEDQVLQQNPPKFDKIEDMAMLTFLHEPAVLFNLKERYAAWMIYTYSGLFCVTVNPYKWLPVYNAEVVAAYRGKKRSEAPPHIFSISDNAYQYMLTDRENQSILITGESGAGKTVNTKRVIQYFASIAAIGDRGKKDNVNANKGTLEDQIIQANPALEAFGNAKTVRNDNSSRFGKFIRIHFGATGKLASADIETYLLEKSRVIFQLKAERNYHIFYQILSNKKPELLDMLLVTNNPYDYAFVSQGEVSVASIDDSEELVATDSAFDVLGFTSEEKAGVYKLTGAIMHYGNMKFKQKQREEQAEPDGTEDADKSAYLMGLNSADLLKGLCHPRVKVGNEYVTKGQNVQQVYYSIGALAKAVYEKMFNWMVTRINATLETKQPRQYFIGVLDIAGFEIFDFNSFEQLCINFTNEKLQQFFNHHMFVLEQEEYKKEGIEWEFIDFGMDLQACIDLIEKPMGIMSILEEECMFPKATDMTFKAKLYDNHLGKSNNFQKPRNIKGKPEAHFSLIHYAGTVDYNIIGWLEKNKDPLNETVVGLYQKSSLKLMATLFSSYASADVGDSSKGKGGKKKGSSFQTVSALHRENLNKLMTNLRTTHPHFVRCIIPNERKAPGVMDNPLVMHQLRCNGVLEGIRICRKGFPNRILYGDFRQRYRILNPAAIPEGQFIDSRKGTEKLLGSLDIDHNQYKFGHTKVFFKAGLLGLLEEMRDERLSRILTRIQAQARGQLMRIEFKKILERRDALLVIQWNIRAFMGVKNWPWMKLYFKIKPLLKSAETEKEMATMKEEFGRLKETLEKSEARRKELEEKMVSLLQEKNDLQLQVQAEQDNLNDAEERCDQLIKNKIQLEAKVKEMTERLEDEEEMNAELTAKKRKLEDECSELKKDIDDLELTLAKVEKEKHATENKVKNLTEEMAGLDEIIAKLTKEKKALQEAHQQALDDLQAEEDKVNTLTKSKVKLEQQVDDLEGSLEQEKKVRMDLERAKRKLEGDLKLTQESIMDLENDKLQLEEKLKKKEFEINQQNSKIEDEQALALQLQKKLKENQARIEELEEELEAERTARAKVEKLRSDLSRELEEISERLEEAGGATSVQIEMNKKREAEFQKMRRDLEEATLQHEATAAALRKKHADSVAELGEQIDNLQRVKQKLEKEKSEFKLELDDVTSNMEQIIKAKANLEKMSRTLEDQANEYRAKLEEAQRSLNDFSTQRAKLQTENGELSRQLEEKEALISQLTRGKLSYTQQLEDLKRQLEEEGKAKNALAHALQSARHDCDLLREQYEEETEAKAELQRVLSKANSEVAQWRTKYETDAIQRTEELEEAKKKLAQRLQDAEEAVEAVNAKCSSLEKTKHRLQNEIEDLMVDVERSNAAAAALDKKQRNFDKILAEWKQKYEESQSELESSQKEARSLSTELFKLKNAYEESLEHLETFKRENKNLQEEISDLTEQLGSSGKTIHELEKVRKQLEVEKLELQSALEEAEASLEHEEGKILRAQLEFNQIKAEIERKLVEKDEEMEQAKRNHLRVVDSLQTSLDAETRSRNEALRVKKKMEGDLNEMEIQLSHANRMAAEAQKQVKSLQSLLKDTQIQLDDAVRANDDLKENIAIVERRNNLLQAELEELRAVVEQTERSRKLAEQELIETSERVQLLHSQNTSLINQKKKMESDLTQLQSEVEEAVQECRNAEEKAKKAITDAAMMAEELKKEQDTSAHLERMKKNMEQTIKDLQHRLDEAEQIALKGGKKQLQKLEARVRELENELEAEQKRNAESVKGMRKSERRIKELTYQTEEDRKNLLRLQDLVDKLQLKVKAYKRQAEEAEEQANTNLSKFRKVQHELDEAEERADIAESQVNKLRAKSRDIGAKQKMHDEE
Sequence of left atrial (LA) myofibrils (F1RRT2 2-197, further chain): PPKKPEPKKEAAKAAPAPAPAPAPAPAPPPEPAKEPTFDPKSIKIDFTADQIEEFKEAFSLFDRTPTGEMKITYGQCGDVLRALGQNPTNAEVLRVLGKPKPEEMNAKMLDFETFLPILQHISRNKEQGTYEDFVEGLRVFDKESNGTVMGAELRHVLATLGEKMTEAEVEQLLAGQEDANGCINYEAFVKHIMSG
Description: The ability of Compound I to increase myocardial ATP turnover rates selectively was evaluated using both left atrial (LA) and left ventricular (LV) myofibrils prepared from Yucatan mini-pig hearts, as well as subfragment-1 (51) myosins from cardiac (recombinant human), skeletal (rabbit psoas) and smooth (chicken gizzard) muscles. Pig hearts were harvested, and the left atria/ventricles were freshly excised, dissected, frozen in liquid nitrogen and stored at −80° C. […] This enzyme system couples the formation of ADP to the oxidation of NADH leading to an absorbance change at 340 nm. […] All measurements were carried out at 25° C. using a plate reader (SpectraMax; Molecular Devices, LLC, CA, USA) to monitor the change in absorbance as a function of time; data were normalized to a per-second scale as described in Green et al., Science (2016) 351(6273):617-21. […]

[5] = 0.3-0.4 mg/kg IV bolus with 0.3/0.4 mg/kg/hr IV infusion, P<0.05
[6] = IV bolus + infusion with PE vs PE alone, FIG. 4

T1 sequence (P79293 whole entry): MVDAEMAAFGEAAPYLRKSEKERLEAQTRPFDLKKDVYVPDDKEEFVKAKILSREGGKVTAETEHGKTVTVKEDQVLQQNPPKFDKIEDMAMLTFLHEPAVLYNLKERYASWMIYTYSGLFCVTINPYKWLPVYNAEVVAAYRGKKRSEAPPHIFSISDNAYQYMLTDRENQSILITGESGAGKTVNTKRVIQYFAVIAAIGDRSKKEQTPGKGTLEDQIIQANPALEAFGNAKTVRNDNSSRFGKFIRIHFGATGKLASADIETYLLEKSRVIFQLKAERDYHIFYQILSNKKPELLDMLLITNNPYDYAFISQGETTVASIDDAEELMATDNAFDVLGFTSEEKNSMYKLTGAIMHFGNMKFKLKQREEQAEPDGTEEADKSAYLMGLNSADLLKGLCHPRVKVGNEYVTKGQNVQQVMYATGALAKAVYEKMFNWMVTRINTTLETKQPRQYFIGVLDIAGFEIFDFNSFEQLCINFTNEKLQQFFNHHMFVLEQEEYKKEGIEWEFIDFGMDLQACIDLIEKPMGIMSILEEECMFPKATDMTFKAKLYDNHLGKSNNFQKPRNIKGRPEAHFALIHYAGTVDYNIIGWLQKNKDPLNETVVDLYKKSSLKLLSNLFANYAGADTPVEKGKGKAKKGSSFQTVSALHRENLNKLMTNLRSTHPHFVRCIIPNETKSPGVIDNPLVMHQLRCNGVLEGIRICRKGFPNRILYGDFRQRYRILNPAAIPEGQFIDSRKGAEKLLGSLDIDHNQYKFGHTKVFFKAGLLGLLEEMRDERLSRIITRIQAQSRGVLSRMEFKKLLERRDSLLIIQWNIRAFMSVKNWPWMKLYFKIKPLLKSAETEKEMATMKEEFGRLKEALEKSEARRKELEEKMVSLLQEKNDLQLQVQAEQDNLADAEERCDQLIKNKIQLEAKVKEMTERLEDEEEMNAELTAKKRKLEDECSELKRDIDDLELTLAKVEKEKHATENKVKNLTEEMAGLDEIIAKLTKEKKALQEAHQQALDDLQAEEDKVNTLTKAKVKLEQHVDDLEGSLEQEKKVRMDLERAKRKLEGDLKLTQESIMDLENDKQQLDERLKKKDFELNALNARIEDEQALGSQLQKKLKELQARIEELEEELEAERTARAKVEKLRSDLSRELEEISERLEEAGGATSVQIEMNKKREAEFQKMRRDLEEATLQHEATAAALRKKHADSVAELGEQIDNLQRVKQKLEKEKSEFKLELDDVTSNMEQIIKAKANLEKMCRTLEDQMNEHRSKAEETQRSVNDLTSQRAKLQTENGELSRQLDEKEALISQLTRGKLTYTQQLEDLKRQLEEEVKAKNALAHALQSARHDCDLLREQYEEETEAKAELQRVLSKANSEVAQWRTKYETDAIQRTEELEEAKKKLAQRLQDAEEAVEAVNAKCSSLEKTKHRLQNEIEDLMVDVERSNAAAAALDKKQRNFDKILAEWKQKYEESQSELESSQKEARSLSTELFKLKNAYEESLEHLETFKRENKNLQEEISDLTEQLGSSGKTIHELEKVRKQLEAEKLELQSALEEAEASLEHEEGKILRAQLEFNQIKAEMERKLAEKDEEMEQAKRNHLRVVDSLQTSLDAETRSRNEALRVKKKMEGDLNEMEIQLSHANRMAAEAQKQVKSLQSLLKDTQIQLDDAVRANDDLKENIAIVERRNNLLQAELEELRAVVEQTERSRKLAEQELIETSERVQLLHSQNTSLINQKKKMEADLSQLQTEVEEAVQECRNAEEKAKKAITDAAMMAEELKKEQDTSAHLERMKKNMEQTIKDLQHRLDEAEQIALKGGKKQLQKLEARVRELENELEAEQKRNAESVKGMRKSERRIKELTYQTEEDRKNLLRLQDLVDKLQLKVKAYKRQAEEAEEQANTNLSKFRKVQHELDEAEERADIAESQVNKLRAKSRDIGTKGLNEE

## Cn1cc(S(=O)(=O)[C@@](C)(F)C2CCN(C(=O)Nc3ccon3)CC2)c(C(F)F)n1 [Compound I, (R)-4-(1-((3-(difluoromethyl)-1-methyl-1H-pyrazol-4-yl)sulfonyl)-1-fluoroethyl)-N-(isoxazol-3-yl)piperidine-1-carboxamide]
[1]; at 3 μM
  increase in ATPase, LV porcine myofibrils: 85%
[1]; at 50 μM, SD ±0.3
  increase in ATPase turnover rate, ventricular myofibrils: 3.0 fold
[1]; pCa 6.0, 25° C., 95% CI 3.7-27.5, read-out: half maximal active concentration [AC50], ATPase turnover rate, ventricular myofibrils
  AC50: 6 µM
[2]
  increase in ATPase rate, cardiac (human) S1 myosin: 1.4 fold
[3]; [5]
  fractional shortening (FS), increase: 13±3%
  left-ventricular stroke volume (SV), increase: 16±5%
[3]; 0.3-0.4 mg/kg IV bolus with 0.3/0.4 mg/kg/hr IV infusion, prolonged, P<0.05
  systolic ejection time (SET), change: 10±3%
[3]; 0.3-0.4 mg/kg IV bolus with IV infusion, PE on board, systemic pressures preserved
  SBP under Compound I: 135.7±6.2 mmHg
[3]; Compound I, Example 3 protocol, FIG. 6
  LV contractility (ΔEF): increase LV contractility
[3]; [6]
  atrial emptying fraction (LA EF): increasing the atrial emptying fraction
  left-atrial size (LA Volmin): decreased left-atrial size
[3]; IV bolus + infusion with PE vs PE alone, burst pacing, FIG. 4
  AF inducibility (e.g., AF duration): decreasing AF inducibility
[4]; at 3 μM, read-out: increase in ATPase, LA porcine myofibrils
  activation at 3 µM: 56%
[4]; at 50 μM, SD ±0.3, read-out: increase in ATPase turnover rate, atrial myofibrils
  fold induction at 50 µM: 2.3
